From patent US12509734B2, “Systems and methods to assess microbiomes and treatments thereof” (priority 2013, dated 2025)

Columns and labels:
[1] = test system: vaginal microbiota (PB-primer target groups); experiment: PB-qPCR microbial profiles of vaginal swabs of recurrent BV patients (Example 2); assay type: in vivo, human
Experimental: Sample processing, DNA extraction, and qPCR. Microbial gDNA was purified from swabs in 1-2 ml saline or lysis solution by a high SDS/alkaline lysis—phenol extraction protocol as described previously in Lambert and resuspended in 200 μL TE (10 mM Tris, pH 8, 1 mM EDTA). The lysed bacterial gDNA is stable for over one month at room temperature in lysis solution buffer (data not shown) and this buffer prevents changes in titer due to possible stability issues with different strains of bacteria in saline. An aliquot of purified DNA was assayed by qPCR with 18 universal and phylogenetic branch-inclusive (PB) primers and PCR conditions as described previously in Lambert. Additional primers, targeting the Enterococcus genus and its cytolysin gene CyILL, are provided in SEQ ID NOs: 92 and 95 (Enterococcus), and 93 and 96 (cytolysin gene). Each PB-primer targets a branch of the phylogenetic tree, from whole phyla to family or genus, and is far more inclusive than species-specific primers. Relative LB composition of the vaginal microbiome was determined by dividing the Lactobacillaceae titer by the sum of all PB-primers and by using the disclosed LB-blocker approach. Briefly, the LB-blocker approach uses the difference between the quantitative cycles (Cq) of two parallel qPCR reactions with universal primers targeting the 16S rRNA gene, when one of the reactions is in the presence of LB spp.-specific blocking oligomers (LB-blockers) that have been chemically modified to prevent extension and that partially overlap the universal primer binding site, effectively rendering the LB DNA “invisible” to the universal PCR, even when LB gDNA is present at great excess compared to non-LB gDNA, as is common in healthy and PT samples. PB-primers amplicons were selectively sequenced to confirm they were correctly targeted and to identify the dominant species. These were “cleaned” enzymatically as described in Lambert, and Sanger sequenced at Functional Biosciences (Madison, WI). Sequences were uploaded to Ribosomal Database Project II using its Pipeline function; species were identified based on phylogenetic trees constructed in Molecular Evolutionary Genetics Analysis (MEGA5) software.
Calculations. Cq values from qPCR reactions were converted to molecules per reaction by comparing sample Cq values to a standard curve from the same run of Cq values derived from dilutions of an amplicon of known target of known concentration. Molecules per reaction were converted to cells per swab, assuming an average of 5 ribosomal genes per cell and proportioned to the ratio of the volume of the sample used in the DNA prep and the amount of sample used in the qPCR reaction. Delta Cq (ΔCq) values of LB-blocked reaction pairs were calculated as Cq (blocked sample)−Cq (unblocked sample). Differences between patient groups were compared using the t test in (GraphPad software).

bacterial vaginosis (BV) [2] = experiment: Clinical assessment of BV patients after therapy (Amsel criteria, Nugent score, recurrence); assay type: in vivo, human
From the text: Patients. Five African American participants were followed at the Vaginitis Clinic at Wayne State University and had been treated for recurrent episodes symptomatic bouts of BV. Patients were enrolled after protocol explanation and written informed consent was obtained. The study was endorsed by the Human Investigational Review Board of Wayne State University. At the time of enrollment, patients were diagnosed with florid symptomatic acute BV, characterized by the presence of at least 3 of the 4 Amsel criteria (homogeneous vaginal discharge, pH elevated above 4.5, clue cells>20%, positive whiff test) and Nugent scores of at least 8.
At this immediate PT visit, patients were given Catch-All Sample Collection Swabs (Epicentre Biotechnologies, Madison, WI) and 15 mL conical tubes for vaginal specimen self-collection. […] Samples from a previously characterized group of recurrent BV patients, sampled before and after treatment, were also evaluated by Lb-qPCR. Reichman et al., Sexually Transmitted Diseases 36: 732-734, 2009.

bacterial vaginosis (BV) [3] = conditions: 121 women with BV successfully treated; cited from earlier work
[4] = test system: relative LB content of the vaginal microbiome; experiment: Lb-qPCR / LbRC: delta Cq of LB-blocked versus unblocked universal qPCR of vaginal samples; assay type: in vivo, human; conditions: separate group of recurrent BV patients, FIG. 11
Experimental: Sample processing, DNA extraction, and qPCR. Microbial gDNA was purified from swabs in 1-2 ml saline or lysis solution by a high SDS/alkaline lysis—phenol extraction protocol as described previously in Lambert and resuspended in 200 μL TE (10 mM Tris, pH 8, 1 mM EDTA). The lysed bacterial gDNA is stable for over one month at room temperature in lysis solution buffer (data not shown) and this buffer prevents changes in titer due to possible stability issues with different strains of bacteria in saline. An aliquot of purified DNA was assayed by qPCR with 18 universal and phylogenetic branch-inclusive (PB) primers and PCR conditions as described previously in Lambert. Additional primers, targeting the Enterococcus genus and its cytolysin gene CyILL, are provided in SEQ ID NOs: 92 and 95 (Enterococcus), and 93 and 96 (cytolysin gene). Each PB-primer targets a branch of the phylogenetic tree, from whole phyla to family or genus, and is far more inclusive than species-specific primers. Relative LB composition of the vaginal microbiome was determined by dividing the Lactobacillaceae titer by the sum of all PB-primers and by using the disclosed LB-blocker approach. […]
Calculations. […] Delta Cq (ΔCq) values of LB-blocked reaction pairs were calculated as Cq (blocked sample)−Cq (unblocked sample). […]

[5] = P2, 500 mg suppositories, 2 per day for 7 days
[6] = P5, 7 daily 500 mg vaginal suppositories
[7] = separate group of recurrent BV patients

**Q.** What does the source list for `CCC[C@@H]1C[C@@H](C(=O)N[C@@H]([C@H]2O[C@H](SC)[C@H](O)[C@@H](O)[C@H]2O)[C@H](C)Cl)N(C)C1` [clindamycin]?
**A.** Actinobacteridae (G. vaginalis) after treatment, fold lower than P1 or P2 ([1]; P3-post): 10-100 fold; Mobiluncus share after treatment ([1]; P3-post): 0.4%; Share of all other targets after treatment ([1]; P3-post): below 0.01%; Nugent score after treatment (bacterial vaginosis (BV) [2]; P3, Nugent 10 before): 0

**Q.** With `Cc1ncc([N+](=O)[O-])n1CCO` [metronidazole] as the compound, how does the “Women who recurred within one year” value (bacterial vaginosis (BV) [3]) read?
**A.** Its value is 58%.

**Q.** What about the “Women who returned to abnormal vaginal profiles” value (bacterial vaginosis (BV) [3]) of the same compound?
**A.** The value was 69%.

**Q.** And the “Actinobacteridae (G. vaginalis) share after treatment” value ([1]; P1-post1)?
**A.** The value was 2%.

**Q.** What about the “Lactobacillaceae share of post-treatment samples” value ([1]; P1-post1 and -post2, high dose vaginal) of the same compound?
**A.** Its value is greater than 97%.

**Q.** What about the “Further fold reduction of G. vaginalis” value ([1]; P1-post2 versus P1-post1) of the same compound?
**A.** The value was roughly 100 fold.

**Q.** And the “Actinobacteridae (G. vaginalis) share after treatment” value ([1]; P2-post1, oral)?
**A.** Its value is less than 0.5%.

**Q.** What about the “Share of 6-8 other targets after treatment” value ([1]; P2-post1, oral) of the same compound?
**A.** The value was “under 0.1%”.

**Q.** And the “Clinical status 10 days later” value (bacterial vaginosis (BV) [2]; P1, daily suppositories 750 mg)?
**A.** Its value is “full remission”.

**Q.** What about the “Day of recurrence of symptomatic BV” value (bacterial vaginosis (BV) [2]; P1, daily suppositories 750 mg) of the same compound?
**A.** The value was 94 days.

**Q.** And the “Amsel status after treatment” value (bacterial vaginosis (BV) [2]; P1, high dose vaginal)?
**A.** The value was “Amsel negative”.

**Q.** What about the “Nugent score after treatment” value (bacterial vaginosis (BV) [2]; P1, high dose vaginal, after first and second BV episodes) of the same compound?
**A.** Its value is 0.

**Q.** What about the “Florid episodes of BV in the two previous years in spite of prophylactic therapy” value (bacterial vaginosis (BV) [2]; P1, vaginal 500-750 mg twice weekly) of the same compound?
**A.** Its value is 4.

**Q.** What about the “Amsel status after treatment” value (bacterial vaginosis (BV) [2]; P2-post1, oral) of the same compound?
**A.** Its value is “Amsel negative”.

**Q.** And the “Nugent score after treatment” value (bacterial vaginosis (BV) [2]; P2-post1, oral)?
**A.** Its value is 0.

**Q.** What about the “Day symptoms were reported after second treatment” value (bacterial vaginosis (BV) [2]; [5]) of the same compound?
**A.** Its value is 152 days.

**Q.** And the “Response to second treatment” value (bacterial vaginosis (BV) [2]; [5])?
**A.** Its value is “recovered well”.

**Q.** What about the “Time to recurrence after second treatment (self-reported)” value (bacterial vaginosis (BV) [2]; P2, 2x500 mg suppositories daily for 7 days) of the same compound?
**A.** The value was “approximately 117 days PT”.

**Q.** What about the “Clinical status one week later” value (bacterial vaginosis (BV) [2]; P2, oral 500 mg bid for 7 days) of the same compound?
**A.** The value was “asymptomatic”.

**Q.** What about the “Time of symptomatic recurrence after enrollment” value (bacterial vaginosis (BV) [2]; P2, oral 500 mg bid for 7 days) of the same compound?
**A.** The value was 35 days.

**Q.** And the “Clinical status 21 days later” value (bacterial vaginosis (BV) [2]; [6])?
**A.** Its value is “asymptomatic in clinical remission”.

**Q.** And the “Nugent score 21 days later” value (bacterial vaginosis (BV) [2]; [6])?
**A.** Its value is 4.

**Q.** And the “Outcome at return within three weeks by Amsel criteria” value (bacterial vaginosis (BV) [2]; five recurrent BV patients, Nugent scores of 0 except Patient 5)?
**A.** Its value is “clinical cure”.

**Q.** What about the “Nugent average after treatment, Post A group” value (bacterial vaginosis (BV) [2]; [7]) of the same compound?
**A.** The value was 2.2±4.0.

**Q.** What about the “Nugent average after treatment, Post B group” value (bacterial vaginosis (BV) [2]; [7]) of the same compound?
**A.** Its value is 0.8±1.2.

**Q.** And the “delta Cq score after treatment, Post A group” value [4]?
**A.** The value was 4.1±2.2.

**Q.** And the “delta Cq score after treatment, Post B group” value [4]?
**A.** Its value is 17±6.
